According to PubChem BioAssay AID504528 (Sanford-Burnham Center for Chemical Genomics, 2011):
Calls of active or inactive are those of the source.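 The calls were made as follows: active = mean IC50 of 20 µM or lower; inactive = the rest.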

system: HEK-293T NF-kB-Luc cytotoxicity, resazurin fluorescence, 14 h; assay: HEK-293T cell viability loss – cytotoxicity control for B-cell antigen receptor NF-kB inhibitors, SAR follow-up (AID 504528)

Row | SMILES | IC50
1 | CCOc1ccc(-c2nc(CSCC(=O)NC(C)(C)C)c(C)o2)cc1 | > 79 µM (inactive)
2 | CC(C)(C)NC(=O)CCc1nc(-c2ccccc2)no1 | > 79 µM (inactive)
3 | CCOc1ccc(-c2nc(CSCC(=O)NC3CC3)c(-c3ccccc3)o2)cc1 | > 79 µM (inactive)
4 | CCOc1ccc(-c2nc(CSCC(=O)NC)c(C)o2)cc1 | > 79 µM (inactive)
5 | CCOc1ccc(-c2nc(CSCC(=O)N3CCOCC3)c(C)o2)cc1 | > 79 µM (inactive)
6 | CCNC(=O)CCc1nc(-c2cccc(F)c2)no1 | > 79 µM (inactive)
7 | CCOc1cccc(-c2nc(CSCC(=O)NC3CC3)c(C)o2)c1 | > 79 µM (inactive)
8 | CCc1ccc(-c2noc(CCC(=O)NC)n2)cc1 | > 79 µM (inactive)
9 | CCCOc1ccc(-c2nc(CSCC(=O)NCc3ccco3)c(C)o2)cc1 | 59.8 µM (inactive)
10 | CC(C)c1ccc(-c2noc(CCC(=O)NC3CC3)n2)cc1 | > 79 µM (inactive)
11 | COc1cccc(-c2cc(=O)c3cc(NC(=O)c4ccc(N(C)C)cc4)ccc3[nH]2)c1 | 2.25 µM
12 | CCC(C)NC(=O)CCc1nc(-c2ccc(C(C)C)cc2)no1 (configuration not stated) | > 79 µM (inactive)
13 | CCOC(=O)CC(NC(=O)c1ccc(Br)cc1)c1ccc(F)c([N+](=O)[O-])c1 (configuration not stated) | > 79 µM (inactive)
14 | CC(C)Nc1ccc(C(CC(=O)O)NC(=O)c2ccccc2)cc1[N+](=O)[O-] (configuration not stated) | > 79 µM (inactive)
15 | CCCCc1ccc(-c2noc(CCC(=O)NCC)n2)cc1 | > 79 µM (inactive)
16 | CCOc1ccccc1-c1nc(CSCC(=O)NC2CC2)c(C)o1 | > 79 µM (inactive)
17 | CNC(=O)CCc1nc(-c2ccc(C(C)C)cc2)no1 | > 79 µM (inactive)
18 | CCCCOc1ccc(-c2nc(CSCC(=O)NCc3ccco3)c(C)o2)cc1 | > 79 µM (inactive)
19 | O=C(CCc1nc(-c2ccccc2)no1)NC1CC1 | > 79 µM (inactive)

Row | SMILES | IC50
20 | CCc1ccc(-c2noc(CCC(=O)NC(C)(C)C)n2)cc1 | > 79 µM (inactive)
21 | CCc1ccc(-c2noc(CCC(=O)NC3CC3)n2)cc1 | > 79 µM (inactive)
22 | CCCCc1ccc(-c2noc(CCC(=O)NC(C)CC)n2)cc1 (configuration not stated) | > 79 µM (inactive)
23 | CCOc1ccc(-c2nc(CSCC(N)=O)c(C)o2)cc1 | > 79 µM (inactive)
24 | CCOc1ccc(-c2nc(CSCC(=O)N(C)C)c(C)o2)cc1 | > 79 µM (inactive)
25 | CCc1ccc(-c2nc(CSCC(=O)NC3CC3)c(-c3ccccc3)o2)cc1 | > 79 µM (inactive)
26 | COc1ccc(C(=O)Nc2ccc3[nH]c(-c4cccc(OC)c4)cc(=O)c3c2)cc1 | > 79 µM (inactive)
27 | CCNC(=O)CCc1nc(-c2ccccc2C)no1 | > 79 µM (inactive)
28 | CCCCc1ccc(-c2noc(CCC(=O)NC3CC3)n2)cc1 | > 79 µM (inactive)
29 | CCOc1ccccc1-c1nc(CSCC(=O)O)c(C)o1 | > 79 µM (inactive)
30 | CCCCc1ccc(-c2noc(CCC(=O)NC(C)(C)C)n2)cc1 | > 79 µM (inactive)
31 | CCNC(=O)CCc1nc(-c2c(Cl)cccc2Cl)no1 | > 79 µM (inactive)
32 | Cc1ccc(-c2nc(CSCC(=O)NCc3ccco3)c(C)o2)cc1 | > 79 µM (inactive)
33 | Cc1oc(-c2ccc(C(F)(F)F)cc2)nc1CSCC(=O)O | > 79 µM (inactive)
34 | CCNC(=O)CCc1nc(-c2cccc(C)c2)no1 | > 79 µM (inactive)
35 | CC(C)c1ccc(-c2noc(CCC(=O)NC(C)(C)C)n2)cc1 | > 79 µM (inactive)
36 | Cc1ccc(-c2nc(CSCC(=O)NC3CC3)c(C)o2)cc1 | > 79 µM (inactive)
37 | CCNC(=O)CCc1nc(-c2ccc(CC)cc2)no1 | > 79 µM (inactive)
38 | CCOc1ccc(-c2nc(CSCC(=O)NCC3CC3)c(C)o2)cc1 | > 79 µM (inactive)

Row | SMILES | IC50
39 | CCC(C)NC(=O)CCc1nc(-c2ccc(C(C)(C)C)cc2)no1 (configuration not stated) | > 79 µM (inactive)
40 | Cc1oc(-c2ccc(C(F)(F)F)cc2)nc1CSCC(=O)NC1CC1 | > 79 µM (inactive)
41 | CCNC(=O)CCc1nc(-c2ccc(C(C)C)cc2)no1 | > 79 µM (inactive)
42 | Cc1oc(-c2ccc(OC(F)(F)F)cc2)nc1CSCC(=O)O | > 79 µM (inactive)
43 | CCCOc1ccc(-c2nc(CSCC(=O)NC3CC3)c(C)o2)cc1 | > 79 µM (inactive)
44 | CCC(C)NC(=O)CCc1nc(-c2ccccc2)no1 (configuration not stated) | > 79 µM (inactive)
45 | COc1cccc(-c2cc(=O)c3cc(NC(=O)c4ccccc4)ccc3[nH]2)c1 | 60.4 µM (inactive)
46 | CCc1ccc(-c2noc(CCC(=O)NC(C)CC)n2)cc1 (configuration not stated) | > 79 µM (inactive)
47 | C#CCNC(=O)CSCc1nc(-c2ccc(OCC)cc2)oc1C | > 79 µM (inactive)
48 | CCNC(=O)CCc1nc(-c2ccccc2Cl)no1 | > 79 µM (inactive)
49 | Cc1oc(-c2ccc(OC(F)(F)F)cc2)nc1CSCC(=O)NC1CC1 | > 79 µM (inactive)
50 | CCCCOc1ccc(-c2nc(CSCC(=O)NC3CC3)c(C)o2)cc1 | > 79 µM (inactive)
51 | CCNC(=O)CCc1nc(-c2cccc(OC)c2)no1 | > 79 µM (inactive)
52 | CCOc1ccc(-c2nc(CSCC(=O)O)c(C)o2)cc1 | > 79 µM (inactive)
53 | CCCCOc1ccc(-c2nc(CSCC(=O)O)c(C)o2)cc1 | > 79 µM (inactive)
54 | CCCOc1ccc(-c2nc(CSCC(=O)O)c(C)o2)cc1 | > 79 µM (inactive)
55 | CCCCc1ccc(-c2noc(CCC(=O)NC)n2)cc1 | > 79 µM (inactive)
56 | CC(C)(C)c1ccc(-c2noc(CCC(=O)NC3CCC3)n2)cc1 | > 79 µM (inactive)
57 | CCOc1ccc(-c2nc(CSCC(=O)NC3CCC3)c(C)o2)cc1 | > 79 µM (inactive)
